From patent US20110144331A1, “Cinnoline Compounds for the Treatment of Anxiety, Cognitive and Mood Disorders” (AstraZeneca AB, priority 2005, published 2011)

Experiments:
[1] = biological target: T1, human α2β3γ2 GABAA receptor (Homo sapiens, UniProt P18507+P47869); test: Two-electrode voltage-clamp in Xenopus oocytes, potentiation of GABA EC10 current, GABAA2; format: cell-based; conditions: percentage potentiation of GABA EC10 current divided by that of diazepam control
T1 construct: expressed in transfected cells; host or cells: Xenopus laevis oocytes injected with capped cRNA (α:β:γ 1:1:1)
Protocol: (§1) GABAA receptors were heterologously expressed in Xenopus oocytes by injecting cRNA corresponding to human α1, α2, α3, α5, β2, β3 and γ2 subunits of the GABAA receptor genes. The specific subunit combinations (subtypes) were as follows: α1β2γ2, α2β3γ2, α3β3γ2, and α5β3γ2. The EC10 of GABA was approximated for each cell. Stability of GABA-mediated (EC10) current was established. Modulatory effect of test compound was determined and compared across subtypes. […] Thus, the assay can characterize modulatory effects and determine subtype selectivity of test compounds on major subtypes of GABAA receptors.
(§2) Surgically removed ovarian lobes were teased out in OR2 solution (82 NaCl, 2.5 KCl, 5 HEPES, 1.5 NaH2PO4, 1 MgCl2, 0.1 EDTA, in mM, pH 7.4). The oocytes were defolliculated by incubation in 25 mL OR2 containing 0.2% collagenase 1A (SIGMA) two times for about 60 minutes on a platform shaker and stored in Leibovitz's L-15 medium. Oocytes were injected the following day in 0.5× Leibovitz's L-15 medium containing […] gentamycin, 10 units/ml penicillin, and […] streptomycin.
(§3) Capped cRNAs from the linearized vectors containing human α1, β2 and γ2 subunits of the GABAA receptor genes were mixed in ratio of 1:1:30. Oocytes were injected with 25-50 nL of mixed RNA with an appx molar ratio for α1, β2, and γ2 as 1:1:10. Oocyte recordings were done 2-10 days after injection. The same methods apply to subtypes derived from α2β2γ2, α3β3γ2, and α5β3γ2, except for 1:1:1 ratio was used for α, β, and γ subunits.
(§4) All measurements were done in a medium containing ND-96 (96 NaCl, 2 KCl, 1.8 CaCl2.2H2O, 1 MgCl2.6H2O, 5 HEPES, in mM, pH 7.5). Two-electrode voltage-clamp recording was carried out using OpusXpress amplifier (Axon Instruments, Foster City, Calif.), which allows simultaneous recording from 8 oocytes. Oocytes were impaled with two electrodes of 1-2 MΩ tip resistance when filled with 3M KCl. Recordings were begun when membrane potential became stable at potentials negative to −50-−60 mV. Membrane potential was held at −60 mV. […] The concentration of GABA corresponded to the EC10 value calculated for each oocyte. The modulator pulses started 30 s before the GABA pulse so as to allow preincubation with the modulator. A set of 3 pulses with just GABA without modulator was given prior to the modulator-containing pulses to define the baseline GABA response. Two oocytes per each experiment were dedicated to observe the effect of diazepam on GABA response to ensure the presence of γ2 subunit in the GABAA pentameric complex, which imparts diazepam sensitivity to the complex.
(§5) Current amplitude (i) was measured from baseline to peak using Clampfit (Axon Inst., Foster City, Calif.). Potentiation was calculated as percent change from the baseline GABA current flux 100×(imod/icontrol)−1) where imod=current mediated by modulator+GABA and icontrol=current mediated by GABA alone. […] Similarly, a value of −50% potentiation means the presence of modulator caused a 50% decrease in the control current. Various other data shown here were fitted and plotted using GraphPad Prism (GraphPad Software, Inc. San Diego, Calif.). The percentage potentiation was converted to relative potentiation by dividing it with percentage potentiation value obtained from the same assay with diazepam as a control.

[2] = biological target: T2, human α1β2γ2 GABAA receptor (Homo sapiens, UniProt P14867+P18507); test: Two-electrode voltage-clamp in Xenopus oocytes, potentiation of GABA EC10 current, GABAA1; format: cell-based; conditions: percentage potentiation of GABA EC10 current divided by that of diazepam control
T2 construct: expressed in transfected cells; host or cells: Xenopus laevis oocytes injected with capped cRNA
Protocol: as §1, §2, §3, §4, §5

T2 sequence (P14867 28-456): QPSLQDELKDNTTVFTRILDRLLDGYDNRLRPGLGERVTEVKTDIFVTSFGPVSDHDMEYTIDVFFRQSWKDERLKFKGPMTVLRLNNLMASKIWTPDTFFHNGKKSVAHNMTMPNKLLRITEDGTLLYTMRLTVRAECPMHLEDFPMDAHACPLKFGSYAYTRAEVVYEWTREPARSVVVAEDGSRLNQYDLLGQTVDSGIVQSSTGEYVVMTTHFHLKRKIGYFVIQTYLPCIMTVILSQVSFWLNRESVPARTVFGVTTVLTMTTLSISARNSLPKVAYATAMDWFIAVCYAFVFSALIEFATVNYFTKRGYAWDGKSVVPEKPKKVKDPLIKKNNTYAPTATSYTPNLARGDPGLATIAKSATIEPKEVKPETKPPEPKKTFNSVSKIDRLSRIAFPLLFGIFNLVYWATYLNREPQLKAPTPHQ
T2 sequence (P47870 25-512 partner limits assumed): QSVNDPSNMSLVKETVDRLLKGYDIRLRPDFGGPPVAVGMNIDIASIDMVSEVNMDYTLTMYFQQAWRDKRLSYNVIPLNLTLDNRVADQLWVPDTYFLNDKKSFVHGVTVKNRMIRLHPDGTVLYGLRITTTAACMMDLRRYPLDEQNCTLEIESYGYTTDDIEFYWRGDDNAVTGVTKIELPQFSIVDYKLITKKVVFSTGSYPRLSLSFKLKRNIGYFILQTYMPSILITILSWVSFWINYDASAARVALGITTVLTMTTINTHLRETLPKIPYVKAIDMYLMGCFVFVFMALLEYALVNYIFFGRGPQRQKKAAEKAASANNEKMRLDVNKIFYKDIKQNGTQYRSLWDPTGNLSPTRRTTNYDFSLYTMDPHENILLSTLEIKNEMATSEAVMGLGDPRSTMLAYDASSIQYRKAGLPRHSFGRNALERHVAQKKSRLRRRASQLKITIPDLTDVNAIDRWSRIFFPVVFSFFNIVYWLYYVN
T2 sequence (P18507 40-475): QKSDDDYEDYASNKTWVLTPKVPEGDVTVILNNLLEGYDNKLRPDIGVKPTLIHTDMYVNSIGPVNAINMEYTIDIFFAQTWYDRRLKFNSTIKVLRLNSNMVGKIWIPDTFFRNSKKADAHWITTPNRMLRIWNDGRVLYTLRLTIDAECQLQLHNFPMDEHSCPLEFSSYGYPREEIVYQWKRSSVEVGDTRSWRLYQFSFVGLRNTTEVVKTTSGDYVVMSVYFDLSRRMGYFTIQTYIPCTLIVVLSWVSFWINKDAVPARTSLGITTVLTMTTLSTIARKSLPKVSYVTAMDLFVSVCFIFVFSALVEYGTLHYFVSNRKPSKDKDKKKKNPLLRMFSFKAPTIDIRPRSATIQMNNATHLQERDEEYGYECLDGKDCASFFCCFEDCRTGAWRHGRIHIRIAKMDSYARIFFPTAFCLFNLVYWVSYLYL
T1 sequence (P47869 29-451): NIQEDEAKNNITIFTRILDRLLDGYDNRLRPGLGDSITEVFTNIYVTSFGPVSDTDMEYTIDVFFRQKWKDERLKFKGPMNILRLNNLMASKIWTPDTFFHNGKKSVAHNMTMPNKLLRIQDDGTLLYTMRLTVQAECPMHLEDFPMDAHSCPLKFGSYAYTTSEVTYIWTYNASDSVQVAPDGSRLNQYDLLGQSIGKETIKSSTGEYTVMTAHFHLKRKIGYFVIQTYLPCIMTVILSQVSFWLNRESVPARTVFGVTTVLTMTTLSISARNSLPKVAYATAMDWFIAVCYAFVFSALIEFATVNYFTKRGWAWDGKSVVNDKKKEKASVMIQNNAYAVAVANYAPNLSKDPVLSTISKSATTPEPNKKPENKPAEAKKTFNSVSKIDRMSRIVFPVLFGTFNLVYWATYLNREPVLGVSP
T1 sequence (P18507 40-475): as the sequence (P18507 40-475) above
T1 sequence (P28472 26-473 partner): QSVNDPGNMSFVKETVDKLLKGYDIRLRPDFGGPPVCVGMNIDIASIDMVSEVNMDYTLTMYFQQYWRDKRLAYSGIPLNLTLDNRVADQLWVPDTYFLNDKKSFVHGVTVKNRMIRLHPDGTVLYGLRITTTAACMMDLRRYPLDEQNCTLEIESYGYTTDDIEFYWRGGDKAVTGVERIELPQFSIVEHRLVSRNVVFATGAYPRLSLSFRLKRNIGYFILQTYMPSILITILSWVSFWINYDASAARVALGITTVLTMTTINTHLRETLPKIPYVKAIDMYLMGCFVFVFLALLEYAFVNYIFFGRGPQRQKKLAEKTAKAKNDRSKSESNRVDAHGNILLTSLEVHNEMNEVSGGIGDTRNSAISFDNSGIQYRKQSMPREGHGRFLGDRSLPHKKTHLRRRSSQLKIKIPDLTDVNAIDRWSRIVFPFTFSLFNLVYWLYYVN

CCCNC(=O)c1nnc2c(-c3cc(F)ccc3C)cccc2c1N
Relative Potentiation for GABAA2 [1]: 0.22
Relative Potentiation for GABAA1 [2]: 0.02

CCCNC(=O)c1nnc2c(-c3cccc(OC(F)(F)F)c3)cccc2c1N
Relative Potentiation for GABAA2 [1]: 0.48
Relative Potentiation for GABAA1 [2]: 0.87

CCCNC(=O)c1nnc2c(-c3cccc(OC)c3)cccc2c1N
Relative Potentiation for GABAA2 [1]: 0.22
Relative Potentiation for GABAA1 [2]: 0.13

CCCNC(=O)c1nnc2c(-c3ccc(OC)nc3OC)cccc2c1N
Relative Potentiation for GABAA2 [1]: 0.25
Relative Potentiation for GABAA1 [2]: 0.17

CCCNC(=O)c1nnc2c(-c3cccc(F)c3F)cccc2c1N
Relative Potentiation for GABAA2 [1]: 0.17
Relative Potentiation for GABAA1 [2]: −0.11

COc1ccc(F)cc1-c1cccc2c(N)c(C(=O)NC3CC3)nnc12
Relative Potentiation for GABAA2 [1]: 0.357
Relative Potentiation for GABAA1 [2]: −0.028

CCCNC(=O)c1nnc2c(-c3cnn(C)c3)cccc2c1N
Relative Potentiation for GABAA2 [1]: 0.16
Relative Potentiation for GABAA1 [2]: −0.16

CCCNC(=O)c1nnc2c(-c3cc(OC)ccc3Cl)c(F)ccc2c1N
Relative Potentiation for GABAA2 [1]: 0.19
Relative Potentiation for GABAA1 [2]: 0.14

CCCNC(=O)c1nnc2c(-c3cccc(N(C)C)c3)cccc2c1N
Relative Potentiation for GABAA2 [1]: 0.19
Relative Potentiation for GABAA1 [2]: 0.17

CCCNC(=O)c1nnc2c(-c3nc(Br)ccc3OC)cccc2c1N
Relative Potentiation for GABAA1 [2]: 0.34

CCCNC(=O)c1nnc2c(-c3cc(Cl)ccc3OC)cccc2c1N
Relative Potentiation for GABAA2 [1]: 0.4
Relative Potentiation for GABAA1 [2]: 0.38

CCCNC(=O)c1nnc2c(-c3cc(OC)ccc3F)cccc2c1N
Relative Potentiation for GABAA2 [1]: 0.32
Relative Potentiation for GABAA1 [2]: 0.26

CCCNC(=O)c1nnc2c(-c3ccc(C)cc3)cccc2c1N
Relative Potentiation for GABAA2 [1]: 0.11
Relative Potentiation for GABAA1 [2]: 0.013

CCCNC(=O)c1nnc2c(-c3cncc(C(=O)N4CCC4)c3)cccc2c1N
Relative Potentiation for GABAA2 [1]: −0.033
Relative Potentiation for GABAA1 [2]: −0.11

CCCNC(=O)c1nnc2c(-c3cccc(S(C)(=O)=O)c3)cccc2c1N
Relative Potentiation for GABAA2 [1]: 0.26
Relative Potentiation for GABAA1 [2]: 0.34

CCCNC(=O)c1nnc2c(-c3cc(C)nn3C)cccc2c1N
Relative Potentiation for GABAA2 [1]: 0.18
Relative Potentiation for GABAA1 [2]: 0.23

CCCNC(=O)c1nnc2c(-c3ccc(Cl)cc3)c(F)ccc2c1N
Relative Potentiation for GABAA2 [1]: 0.19
Relative Potentiation for GABAA1 [2]: 0.02

CCCNC(=O)c1nnc2c(-c3cc(F)c(OC)cc3F)cccc2c1N
Relative Potentiation for GABAA2 [1]: 0.21
Relative Potentiation for GABAA1 [2]: 0.016

CCCNC(=O)c1nnc2c(-c3ccc(OC)cc3OC)cccc2c1N
Relative Potentiation for GABAA2 [1]: 0.15
Relative Potentiation for GABAA1 [2]: 0.18

CCNC(=O)c1nnc2c(-c3cc(C)ccc3OC)cccc2c1N
Relative Potentiation for GABAA1 [2]: 0.23

CCCNC(=O)c1nnc2c(-c3cc(F)ccc3F)c(F)ccc2c1N
Relative Potentiation for GABAA2 [1]: 0.098
Relative Potentiation for GABAA1 [2]: 0.013

CCCNC(=O)c1nnc2c(-c3ccc(OC)nc3)cccc2c1N
Relative Potentiation for GABAA2 [1]: 0.16
Relative Potentiation for GABAA1 [2]: −0.08

CCCNC(=O)c1nnc2c(-c3cnc(OC)nc3)cccc2c1N
Relative Potentiation for GABAA2 [1]: 0.11
Relative Potentiation for GABAA1 [2]: −0.066

CCCNC(=O)c1nnc2c(-c3ccc(OC)c(OC)c3OC)cccc2c1N
Relative Potentiation for GABAA2 [1]: 0.33
Relative Potentiation for GABAA1 [2]: 0.47

CCCNC(=O)c1nnc2c(-c3ccc4ccccc4c3)cccc2c1N [drawing 381]
Relative Potentiation for GABAA2 [1]: 0.09
Relative Potentiation for GABAA1 [2]: 0.22

CCCNC(=O)c1nnc2c(-c3cc(F)ccc3F)cccc2c1N
Relative Potentiation for GABAA2 [1]: 0.29
Relative Potentiation for GABAA1 [2]: −0.078

CCCNC(=O)c1nnc2c(-c3cncc(OC)c3)cccc2c1N
Relative Potentiation for GABAA2 [1]: 0.34
Relative Potentiation for GABAA1 [2]: 0.07

CCCNC(=O)c1nnc2c(-c3cc(OC)ccc3OC)c(Cl)ccc2c1N
Relative Potentiation for GABAA1 [2]: 0.32

CNC(=O)c1nnc2c(-c3cc(C)ccc3OC)cccc2c1N
Relative Potentiation for GABAA2 [1]: 0.43
Relative Potentiation for GABAA1 [2]: 0.19

CCCNC(=O)c1nnc2c(-c3ccc(N(C)C)cc3)cccc2c1N
Relative Potentiation for GABAA2 [1]: 0.18
Relative Potentiation for GABAA1 [2]: 0.07

Cc1ccc(-c2cccc3c(N)c(C(=O)NC4CC4)nnc23)cn1
Relative Potentiation for GABAA2 [1]: 0.074
Relative Potentiation for GABAA1 [2]: −0.166

COc1cccc(F)c1-c1cccc2c(N)c(C(=O)NC3CCC3)nnc12
Relative Potentiation for GABAA2 [1]: 0.12
Relative Potentiation for GABAA1 [2]: 0.0017

CCCNC(=O)c1nnc2c(-c3cccc(C(=O)O)c3)cccc2c1N
Relative Potentiation for GABAA2 [1]: 0.08
Relative Potentiation for GABAA1 [2]: −0.038

CCCNC(=O)c1nnc2c(-c3ccc(F)cc3OC)c(F)ccc2c1N
Relative Potentiation for GABAA2 [1]: 0.18
Relative Potentiation for GABAA1 [2]: −0.028

CCCNC(=O)c1nnc2c(-c3ccc(F)cc3OC)cccc2c1N
Relative Potentiation for GABAA2 [1]: 0.38
Relative Potentiation for GABAA1 [2]: 0.12

CCCNC(=O)c1nnc2c(-c3ccc4[nH]ccc4c3)cccc2c1N
Relative Potentiation for GABAA2 [1]: 0.16
Relative Potentiation for GABAA1 [2]: 0.15

CCCNC(=O)c1nnc2c(-c3ccccc3)c(OC)ccc2c1N
Relative Potentiation for GABAA2 [1]: 0.08
Relative Potentiation for GABAA1 [2]: 0.12

CCCNC(=O)c1nnc2c(-c3cccc(C(=O)N4CCC4)c3)cccc2c1N
Relative Potentiation for GABAA2 [1]: −0.0075
Relative Potentiation for GABAA1 [2]: 0.19

CCCNC(=O)c1nnc2c(-c3cc(C(=O)N4CCC4)ccc3OC)cccc2c1N
Relative Potentiation for GABAA1 [2]: 0.48

CCCNC(=O)c1nnc2c(-c3ccc(OC)c(OC)c3OC)c(F)ccc2c1N
Relative Potentiation for GABAA1 [2]: 0.51

CCCNC(=O)c1nnc2c(-c3cc(Cl)ccc3OC)c(F)ccc2c1N
Relative Potentiation for GABAA1 [2]: 0.25

CCCNC(=O)c1nnc2c(-c3cc(Cl)cc(Cl)c3)c(F)ccc2c1N
Relative Potentiation for GABAA1 [2]: 0.36

CCCNC(=O)c1nnc2c(-c3ccc(F)cc3OCC)c(F)ccc2c1N
Relative Potentiation for GABAA1 [2]: 0.27

CCCNC(=O)c1nnc2c(-c3cc(OC)cc(OC)c3)c(F)ccc2c1N
Relative Potentiation for GABAA1 [2]: 0.38

CCCNC(=O)c1nnc2c(-c3cc(Cl)ccc3Cl)c(F)ccc2c1N
Relative Potentiation for GABAA1 [2]: 0.21

CCCNC(=O)c1nnc2c(-c3ccc(OC)cc3OC)c(Cl)ccc2c1N
Relative Potentiation for GABAA1 [2]: 0.87

CCCNC(=O)c1nnc2c(-c3ccc(OC)cc3C(F)(F)F)c(F)ccc2c1N
Relative Potentiation for GABAA1 [2]: 0.28

CCCNC(=O)c1nnc2c(-c3cc(C)ccc3OC)c(Cl)ccc2c1N
Relative Potentiation for GABAA1 [2]: 0.47

CCCCNC(=O)c1nnc2c(-c3cc(C)ccc3OC)cccc2c1N
Relative Potentiation for GABAA1 [2]: 0.32
